Patent US20250064789A1, “KETOAMIDE DERIVATIVES AND PHARMACEUTICAL USES THEREOF” (priority 2022, published 2025)

How the values were obtained:
[1] = biological target: recombinant SARS-CoV-2 M^pro (Severe acute respiratory syndrome coronavirus 2 (2019-nCoV) (SARS-CoV-2), UniProt P0DTD1); assay: Inhibition of SARS-CoV-2 M^pro enzyme activity (fluorescent substrate assay); type: biochemical; details: inhibition of SARS-CoV-2 M^pro enzyme activity; values in nM; read-out: IC50
[2] = Cytotoxic assay against Vero E6 cells (MTT, 72 h); type: cell-based; details: African green monkey
Protocol: The cytotoxicity assessment of compounds was performed against Vero E6 cells. The specific experimental procedures: Vero E6 cells were seeded into a 96-well plate at a cell density of 2×10^4 cells/well, with 100 μL/well, and then incubated overnight at 37° C. in a 5% CO2 incubator. The next day, 100 μL of drug-containing medium was added to each well. The compound was diluted in a 2-fold serial dilution with a top concentration of […], for a total of 6 gradients. Three repeated wells were set for each concentration, and negative controls and blank controls without drugs were included for each experiment. […] All experimental data were analyzed using GraphPad Prism software.

[3] = Metabolic stability using human liver microsomes; type: in vitro ADME; details: pH 7.4, NADPH, 37° C., read-out: Human liver microsomes T1/2
[4] = male, Sprague-Dawley, rat, in vivo, iv, 1 mg/kg
[5] = in vivo; details: male, Sprague-Dawley, rat
[6] = Cytotoxic assay against human BEAS-2B cells (MTT, 72 h); type: cell-based; details: human
Protocol: (§1) BEAS-2B cells (normal human bronchial epithelial cells) and HUVEC cells (human umbilical vein endothelial cells) were used to evaluate the cytotoxicity of compounds against human-derived cells. The detailed experimental procedures: BEAS-2B cells or HUVEC cells were seeded into a 96-well plate at a cell density of 2×10^4 cells/well, that is, 100 µL/well, and then incubated overnight at 37° C. in a 5% CO2 incubator. The next day, 100 μL of drug-containing medium was added to each well. The compound was diluted in a 2-fold serial dilution with a top concentration of […], for a total of 6 gradients. Three repeated wells were set for each concentration, and negative controls and blank controls without drugs were included for each experiment. […] All experimental data were analyzed using GraphPad Prism software.

[7] = Cytotoxic assay against HUVEC cells (MTT, 72 h); type: cell-based, human; details: human
Protocol: as §1

[8] = biological target: human thrombin (Homo sapiens (Human), UniProt P00734); assay: Human protease biochemical activity assay: Thrombin activity testing kit; details: read-out: Thrombin IC50
Protocol: (§2) The biochemical activity of compounds against human proteases was determined using Cathepsin K inhibitor screening kit (K150-100), Cathepsin B inhibitor screening kit (K147-100), Thrombin activity testing kit (K373-100), Caspase-2 inhibitor screening kit (K152-100), and Cathepsin D inhibitor screening kit (K148-100) according to the instructions of the kits (Biovision, USA). All experiments were carried out in triplicate. All experimental data were analyzed using GraphPad Prism software.

[9] = biological target: human cathepsin K (Homo sapiens (Human), UniProt P43235); assay: Human protease biochemical activity assay: Cathepsin K inhibitor screening kit; details: read-out: Cathepsin K IC50
Protocol: as §2

[10] = biological target: human cathepsin B (Homo sapiens (Human), UniProt P07858); assay: Human protease biochemical activity assay: Cathepsin B inhibitor screening kit
Protocol: as §2

[11] = biological target: human caspase 2 (Homo sapiens (Human), UniProt P42575); assay: Human protease biochemical activity assay: Caspase-2 inhibitor screening kit; details: read-out: Caspase-2 IC50
Protocol: as §2

[12] = biological target: human cathepsin D (Homo sapiens (Human), UniProt P07339); assay: Human protease biochemical activity assay: Cathepsin D inhibitor screening kit
Protocol: as §2

human caspase 2, sequence (P42575 170-325): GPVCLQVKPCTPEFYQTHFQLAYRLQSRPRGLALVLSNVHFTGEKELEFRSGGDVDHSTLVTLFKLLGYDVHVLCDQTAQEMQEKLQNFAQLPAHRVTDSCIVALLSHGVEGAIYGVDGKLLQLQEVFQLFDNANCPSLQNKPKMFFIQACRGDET
human caspase 2, sequence (P42575 348-452): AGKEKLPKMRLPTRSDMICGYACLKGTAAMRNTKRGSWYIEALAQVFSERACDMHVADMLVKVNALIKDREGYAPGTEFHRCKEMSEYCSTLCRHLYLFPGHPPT
human cathepsin D, sequence (P07339 65-412): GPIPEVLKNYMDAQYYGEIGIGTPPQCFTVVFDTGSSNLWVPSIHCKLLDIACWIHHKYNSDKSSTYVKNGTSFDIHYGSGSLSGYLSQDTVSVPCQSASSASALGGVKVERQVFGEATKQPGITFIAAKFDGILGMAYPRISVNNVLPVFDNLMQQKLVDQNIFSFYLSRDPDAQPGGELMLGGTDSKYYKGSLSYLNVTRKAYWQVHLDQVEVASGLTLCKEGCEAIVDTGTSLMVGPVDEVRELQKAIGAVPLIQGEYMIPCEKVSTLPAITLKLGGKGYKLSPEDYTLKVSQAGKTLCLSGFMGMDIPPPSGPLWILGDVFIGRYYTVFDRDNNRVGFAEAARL
human cathepsin K, sequence (P43235 115-329): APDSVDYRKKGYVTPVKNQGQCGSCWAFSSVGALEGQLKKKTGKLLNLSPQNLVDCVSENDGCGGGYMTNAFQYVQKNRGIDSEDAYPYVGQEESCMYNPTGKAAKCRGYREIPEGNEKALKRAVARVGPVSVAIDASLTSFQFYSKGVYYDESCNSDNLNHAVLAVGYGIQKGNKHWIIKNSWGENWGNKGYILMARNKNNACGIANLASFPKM

| SMILES | IC50 [1] [nM] | CC50 at 72 h [2] [nM] | AUC(0-inf) ([5]; po, 10 mg/kg) [ng·h/mL] | AUC(0-t) ([5]; po, 10 mg/kg) [ng·h/mL] | Cmax ([5]; po, 10 mg/kg) [ng/mL] | MRT inf ([5]; po, 10 mg/kg) [h] | Tmax ([5]; po, 10 mg/kg) [h] | half-life ([5]; po, 10 mg/kg) [h] | other results |
| --- | --- | --- | --- | --- | --- | --- | --- | --- | --- |
| CC(C)(NC(=O)c1cc(OC(F)(F)F)ccc1F)C(=O)N[C@H](Cc1ccccc1)C(=O)C(=O)NCc1ccccn1 [Compound 177] | 10.5 ± 0.2 | 157000 | – | – | – | – | – | – | – |
| CC(C)(C)[C@H](NC(=O)C(F)(F)F)C(=O)N1C[C@H]2[C@@H]([C@H]1C(=O)N[C@H](C#N)C[C@@H]1CCNC1=O)C2(C)C [PF-07321332, Nirmatrelvir, reference compound] | – | – | – | – | – | – | – | – | half-life at 1 µM [3]: 0.353 h |
| O=C(CC1CCC(F)(F)CC1)NCC(=O)N[C@H](Cc1ccccc1)C(=O)C(=O)NCc1ccccn1 [Compound 150] | 12.2 ± 0.1 | > 500000 | 12900 ± 3230 | 12600 ± 3080 | 1300 ± 307 | 5.95 ± 0.09 | 0.42 ± 0.14 | 4.26 ± 0.63 | Vssobs [4]: 2.91 ± 1.48 L/kg; AUC(0-inf) ([5]; iv, 1 mg/kg): 6630 ± 2650 ng·h/mL; AUC(0-t) ([5]; iv, 1 mg/kg): 6420 ± 2820 ng·h/mL; Cmax ([5]; iv, 1 mg/kg): 2010 ± 322 ng/mL; MRT inf ([5]; iv, 1 mg/kg): 3.94 ± 1.26 h; Tmax ([5]; iv, 1 mg/kg): 0.08 h; clearance ([5]; iv, 1 mg/kg): 0.83 ± 0.21 mL/min/kg; half-life ([5]; iv, 1 mg/kg): 3.59 ± 0.8 h; bioavailability ([5]; po, 10 mg/kg): 19.7 ± 4.8% |
| C[C@@H](NC(=O)CC1CC(F)(F)C1)C(=O)N[C@H](Cc1ccccc1)C(=O)C(=O)NCc1cscn1 [Compound 418] | 10.6 ± 0.3 | > 500000 | – | – | – | – | – | – | CC50 at 72 h [6]: > 500000 nM; CC50 at 72 h [7]: > 500000 nM |
| O=C(CCC1CCC(F)(F)CC1)NCC(=O)N[C@H](Cc1ccccc1)C(=O)C(=O)NCc1ccccn1 [Compound 153] | 12 ± 0.6 | – | 26000 ± 265 | 23500 ± 676 | 1980 ± 97.7 | 7.08 ± 0.25 | 1.67 ± 0.58 | 7.14 ± 0.46 | – |
| C[C@@H](NC(=O)CC1CC1(F)F)C(=O)N[C@H](Cc1ccccc1)C(=O)C(=O)NCc1cscn1 (stereo partly drawn) [Compound 417] | 22.1 ± 3 | > 500000 | 5070 ± 2290 | 4890 ± 2320 | 441 ± 225 | 6.55 ± 0.39 | 3.33 ± 1.15 | 5.07 ± 1.78 | CC50 at 72 h [6]: > 500000 nM; CC50 at 72 h [7]: > 500000 nM; half-life at 1 µM [3]: 0.534 h; IC50 [8]: > 100000 nM; IC50 [9]: > 100000 nM; IC50 [10]: > 100000 nM; IC50 [11]: > 100000 nM; IC50 [12]: > 100000 nM |
| C[C@@H](NC(=O)C1CCC(F)(F)CC1)C(=O)N[C@H](Cc1ccccc1)C(=O)C(=O)NCc1ccccn1 [Compound 145] | 17.1 ± 2.5 | – | 3850 ± 875 | 3830 ± 872 | 1170 ± 223 | 3.75 ± 0.56 | 0.33 ± 0.14 | 3.19 ± 0.06 | Vssobs [4]: 14.5 ± 2.62 L/kg; AUC(0-inf) ([5]; iv, 1 mg/kg): 1180 ± 208 ng·h/mL; AUC(0-t) ([5]; iv, 1 mg/kg): 1160 ± 205 ng·h/mL; Cmax ([5]; iv, 1 mg/kg): 1640 ± 86.6 ng/mL; MRT inf ([5]; iv, 1 mg/kg): 1.09 ± 0.13 h; Tmax ([5]; iv, 1 mg/kg): 0.08 h; clearance ([5]; iv, 1 mg/kg): 1.73 ± 0.37 mL/min/kg; half-life ([5]; iv, 1 mg/kg): 1.37 ± 0.05 h; bioavailability ([5]; po, 10 mg/kg): 32.9 ± 7.51% |
| CC(C)(NC(=O)[C@@H]1C[C@@H]2[C@H](C1)C2(F)F)C(=O)N[C@H](Cc1ccccc1)C(=O)C(=O)NCc1ccccn1 [Compound 174] | 13.2 ± 1 | > 500000 | – | – | – | – | – | – | – |
| O=C(NCc1ccccn1)C(=O)[C@@H](Cc1ccccc1)NC(=O)[C@H]1COCCN1C(=O)[C@H](NC(=O)c1cnccn1)C1CCCCC1 [Compound 290] | 11.3 ± 0.2 | – | 3120 ± 894 | 3110 ± 894 | 722 ± 235 | 4.16 ± 0.3 | 0.5 | 2.66 ± 0.11 | – |
| C[C@@H](NC(=O)C1CCC(F)(F)CC1)C(=O)N[C@H](Cc1ccccc1)C(=O)C(=O)NCc1ccccn1 [Compound 317] | 16 ± 0.3 | > 500000 | – | – | – | – | – | – | – |
| O=C(NCc1ccccn1)C(=O)[C@@H](Cc1ccccc1)NC(=O)[C@H]1COCCN1C(=O)C1CCC(F)(F)CC1 [Compound 288] | 14.6 ± 0.4 | – | 3500 ± 1250 | 3490 ± 1250 | 1140 ± 207 | 3.59 ± 0.11 | 0.75 ± 0.43 | 3.03 ± 0.36 | – |
